Experimental data as given in patent publication US5157051A, “Composition and use of 3-thiocyano-2-halo-2-propenenitriles as antimicrobial agents” (The Dow Chemical Company, priority 1992, dated 1992).
In brackets after ≈: the same amount, converted by molar mass. Where two headings read alike, the source gives them in different places.

Assays:
Bacillus subtilis = experiment: MIC, Bacillus subtilis (Bs), nutrient agar; type: cell-based, Bacillus subtilis ATCC 8473; settings: 30° C., 48 hours, read-out: Minimum Inhibitory Concentration, Bs
Experimental: (§1) The minimum inhibitory concentration (MIC) for the compounds is determined for 9 bacteria, using nutrient agar, and 7 yeast and fungi, using malt yeast agar. A one percent solution of the test compound is prepared in a mixture of acetone and water. Nutrient agar is prepared at pH 6.8, representing a neutral medium, and at pH 8.2, representing an alkaline medium. The nutrient agars are prepared by adding 23 g of nutrient agar to one-liter of deionized water. In addition, the alkaline medium is prepared by adjusting a 0.04M solution of N-[tris-(hydroxymethyl)methyl]-glycine buffered deionized water with concentrated sodium hydroxide to a pH of […]. Malt yeast agar is prepared by adding 3 g yeast extract and 45 g malt agar per liter of dionized water. The specific agar is dispensed in 30 ml aliquots into 25×200 mm test tubes, capped and autoclaved for 15 minutes at 115° C. The test tubes containing the agar are cooled in a water bath until the temperature of the agar is 48 ° C. […]
(§2) The inoculated petri plates are incubated at 30° C. for 48 hours and then read to determine if the test compound which is incorporated into the agar prevented growth of the respective bacteria. […]

Enterobacter aerogenes = experiment: MIC, Enterobacter aerogenes (Ea), nutrient agar; type: cell-based, Enterobacter aerogenes ATCC 13048; settings: Klebsiella aerogenes, 30° C., 48 hours, read-out: Minimum Inhibitory Concentration, Ea
Experimental: as §1, §2

Escherichia coli = experiment: MIC, Escherichia coli (Ec), nutrient agar; type: cell-based, Escherichia coli ATCC 11229; settings: 30° C., 48 hours, read-out: Minimum Inhibitory Concentration, Ec
Experimental: as §1, §2

Klebsiella pneumoniae = experiment: MIC, Klebsiella pneumoniae (Kp), nutrient agar; type: cell-based, Klebsiella pneumoniae ATCC 8308; settings: 30° C., 48 hours, read-out: Minimum Inhibitory Concentration, Kp
Experimental: as §1, §2

Proteus vulgaris = experiment: MIC, Proteus vulgaris (Pv), nutrient agar; type: cell-based, Proteus vulgaris ATCC 881; settings: 30° C., 48 hours, read-out: Minimum Inhibitory Concentration, Pv
Experimental: as §1, §2

[1] = tested on: Pseudomonas aeruginosa (PRD-10); experiment: MIC, Pseudomonas aeruginosa (PRD-10), nutrient agar; type: cell-based, Pseudomonas aeruginosa ATCC 15442; settings: 30° C., 48 hours, read-out: Minimum Inhibitory Concentration, PRD
Experimental: as §1, §2

Pseudomonas aeruginosa = experiment: MIC, Pseudomonas aeruginosa (Pa), nutrient agar; type: cell-based, Pseudomonas aeruginosa ATCC 10145; settings: 30° C., 48 hours, read-out: Minimum Inhibitory Concentration, Pa
Experimental: as §1, §2

Salmonella choleraesuis = experiment: MIC, Salmonella choleraesuis (Sc), nutrient agar; type: cell-based, Salmonella choleraesuis ATCC 10708; settings: Salmonella enterica, 30° C., 48 hours, read-out: Minimum Inhibitory Concentration, Sc
Experimental: as §1, §2

Staphylococcus aureus = experiment: MIC, Staphylococcus aureus (Sa), nutrient agar; type: cell-based, Staphylococcus aureus ATCC 6538; settings: 30° C., 48 hours, read-out: Minimum Inhibitory Concentration, Sa
Experimental: as §1, §2

Aspergillus niger = experiment: MIC, Aspergillus niger (An), malt yeast agar; type: cell-based, Aspergillus niger ATCC 16404; settings: 30° C., 72 hours (fungi), read-out: Minimum Inhibitory Concentration, An
Experimental: as §1
(§3) The inoculation with the yeast and fungi is accomplished as follows. […] The petri plates are incubated at 30° C. and read after 48 hours for yeast and 72 hours for fungi. […]

Candida albicans = experiment: MIC, Candida albicans (Ca), malt yeast agar; type: cell-based, Candida albicans ATCC 10231; settings: 30° C., 48 hours (yeast), read-out: Minimum Inhibitory Concentration, Ca
Experimental: as §1, §3

Penicillium chrysogenum = experiment: MIC, Penicillium chrysogenum (Pc), malt yeast agar; type: cell-based, Penicillium chrysogenum ATCC 9480; settings: 30° C., 72 hours (fungi), read-out: Minimum Inhibitory Concentration, Pc
Experimental: as §1, §3

Saccharomyces cerevisiae = experiment: MIC, Saccharomyces cerevisiae (Sc), malt yeast agar; type: cell-based, Saccharomyces cerevisiae ATCC 4105; settings: 30° C., 48 hours (yeast), read-out: Minimum Inhibitory Concentration, Sc
Experimental: as §1, §3

Trichoderma viride = experiment: MIC, Trichoderma viride (Tv), malt yeast agar; type: cell-based, Trichoderma viride ATCC 8678; settings: 30° C., 72 hours (fungi), read-out: Minimum Inhibitory Concentration, Tv
Experimental: as §1, §3

Aureobasidium pullulan = experiment: MIC, Aureobasidium pullulan (Ap), malt yeast agar; type: cell-based, Aureobasidium pullulan ATCC 16622; settings: 30° C., read after 48 hours for yeast and 72 hours for fungi, read-out: Minimum Inhibitory Concentration, Ap
Experimental: as §1, §3

Fusarium oxysporum = experiment: MIC, Fusarium oxysporum (Fo), malt yeast agar; type: cell-based, Fusarium oxysporum ATCC 48112; settings: 30° C., 72 hours (fungi), read-out: Minimum Inhibitory Concentration, Fo
Experimental: as §1, §3

`N#CSC=C(Cl)C#N` [3-Thiocyano-2-chloro-2-propenenitrile, 3-Thiocyano-2-Chloro-2-Propenenitrile] was tested. Which MIC (Bacillus subtilis; pH 6.8, nutrient agar) did it give?
Its MIC is 25 µg/mL (≈ 173 µM).

What about the MIC (Bacillus subtilis; pH 8.2, nutrient agar) of the same molecule?
The MIC was 500 µg/mL (≈ 3460 µM).

And the MIC (Enterobacter aerogenes; pH 6.8, nutrient agar)?
Its MIC is 250 µg/mL (≈ 1730 µM).

And the MIC (Enterobacter aerogenes; pH 8.2, nutrient agar)?
Its MIC is over 500 µg/mL.

And the MIC (Escherichia coli; pH 6.8, nutrient agar)?
The MIC was 100 µg/mL (≈ 692 µM).

And the MIC (Escherichia coli; pH 8.2, nutrient agar)?
The MIC was over 500 µg/mL.

What about the MIC (Klebsiella pneumoniae; pH 6.8, nutrient agar) of the same molecule?
The MIC was 100 µg/mL (≈ 692 µM).

What about the MIC (Klebsiella pneumoniae; pH 8.2, nutrient agar) of the same molecule?
The MIC was 500 µg/mL (≈ 3460 µM).

And the MIC (Proteus vulgaris; pH 6.8, nutrient agar)?
The MIC was 50 µg/mL (≈ 346 µM).

And the MIC (Proteus vulgaris; pH 8.2, nutrient agar)?
The MIC was over 500 µg/mL.

And the MIC ([1]; pH 6.8, nutrient agar)?
The MIC was 250 µg/mL (≈ 1730 µM).

What about the MIC ([1]; pH 8.2, nutrient agar) of the same molecule?
The MIC was over 500 µg/mL.

What about the MIC (Pseudomonas aeruginosa; pH 6.8, nutrient agar) of the same molecule?
Its MIC is 250 µg/mL (≈ 1730 µM).

What about the MIC (Pseudomonas aeruginosa; pH 8.2, nutrient agar) of the same molecule?
The MIC was 500 µg/mL (≈ 3460 µM).

What about the MIC (Salmonella choleraesuis; pH 6.8, nutrient agar) of the same molecule?
Its MIC is 100 µg/mL (≈ 692 µM).

What about the MIC (Salmonella choleraesuis; pH 8.2, nutrient agar) of the same molecule?
Its MIC is over 500 µg/mL.

What about the MIC (Staphylococcus aureus; pH 6.8, nutrient agar) of the same molecule?
Its MIC is 50 µg/mL (≈ 346 µM).

What about the MIC (Staphylococcus aureus; pH 8.2, nutrient agar) of the same molecule?
The MIC was 500 µg/mL (≈ 3460 µM).

What about the MIC (Aspergillus niger) of the same molecule?
Its MIC is 2.5 µg/mL (≈ 17.3 µM).

What about the MIC (Candida albicans) of the same molecule?
Its MIC is 2.5 µg/mL (≈ 17.3 µM).

And the MIC (Penicillium chrysogenum)?
Its MIC is 2.5 µg/mL (≈ 17.3 µM).

And the MIC (Saccharomyces cerevisiae)?
Its MIC is 2.5 µg/mL (≈ 17.3 µM).

What about the MIC (Trichoderma viride) of the same molecule?
The MIC was 5 µg/mL (≈ 34.6 µM).

What about the MIC (Aureobasidium pullulan) of the same molecule?
The MIC was 2.5 µg/mL (≈ 17.3 µM).

And the MIC (Fusarium oxysporum)?
Its MIC is 2.5 µg/mL (≈ 17.3 µM).
